This is an account of results in PMC6600292, “Potent Anti-Ovarian Cancer with Inhibitor Activities on Both Topoisomerase II and ^V600EBRAF of Synthesized Substituted Estrone Candidates” (Molecules, 2019).

For one series, the system named is SKOV-3 cells. Put plainly: MTT cytotoxicity assay against SKOV-3 ovarian cancer cells. Format: cell-based. To be noted: Homo sapiens, read-out: IC50, cytotoxicity against SKOV-3. How it is done: (§1) The cytotoxic activities of the synthesized derivatives against ovarian cancer cell lines (SKOV-3) were evaluated using standard MTT assay. SKOV-3 cells cultivated on DMEM medium supplemented with 10% FBS, […], 1% antibiotic/antimycotic solution and 3.6 g/L NaHCO3 were used. Cells were incubated under standard laboratory conditions. Before testing compounds, cells were trypsinized, centrifuged and prepared as per our developed protocol. MTT assay relies on the enzymatic conversion of the MTT substrate into purple formazan by living cells mitochondrial enzymes. Shortly, 96 well plates were seeded (10,000 cells/100 µL/well), then incubated for 24 h at standard conditions. Afterwards, cells were exposed to different concentrations from prepared compounds and incubated for another 24 h. Thereafter, MTT (10 µL, 5 mg/mL, PBS) were added to each well, and plates were incubated for 4 h. Supernatants were then replaced discarded with 200 µL of DMSO to dissolve the precipitated formazan crystals. Formazan absorbance, proportional to living cell number, was read at 550 nm using a microplate reader. Viability percentages were calculated and the corresponding IC50 values were obtained from the linear regression of the calibration curve. For comparison, doxorubicin (DOX) and resveratrol (RES) were used as positive controls. Furthermore, the effect of the newly synthesized derivatives was tested against normal fibroblast cell line to assess their toxicities.

A short description of the next series: in vitro. Format: cell-based. The procedure:
as §1

The target in another series is topoisomerase II. As to the kind of experiment: Topoisomerase II relaxation assay. Format: biochemical. To be noted: topoisomerase II purified from P388 cells, relaxation of pBR-322 DNA; read-out: IC50, topoisomerase II inhibition. How it is done:
The inhibitory effects of the synthesized compounds against topoisomerase II were investigated using relaxation assay according to Goyeneche, et al.. Topoisomerase II was purified from P388 cells, where enzyme unit corresponds to the activity required complete relaxation of […] of supercoiled pBR-322 DNA at 30 °C for 1 h. The assay was performed as per protocol and samples were subjected to electrophoresis (0.7% agarose gels, TBE buffer. Ethidium bromide-stained DNA was examined under UV light.

In series [1] the target is T1, V600EBRAF (mutant BRAF kinase) (Homo sapiens, UniProt P15056, V600E).
T1 construct: BRAF wild-type and V600E mutant kinase domains were expressed and purified; made in house; host or cells: Sf9 insect cells, baculovirus
As to the kind of experiment: In vitro ELISA-based kinase assay, V600EBRAF. To be noted: GST-MEK-His substrate. Format: biochemical.
Experimental: BRAF wild-type and V600E mutant kinase domains were expressed and purified according to Nakamura et al. [34]. Shortly, Sf 9 cells infected with BRAF kinase domain containing baculovirus were resuspended, sonicated, and then cleared using ultracentrifugation. Afterwards, the cleared lysate with mixed with equilibrated Talon resin, and the resin then washed with 10 column volumes of wash buffer and then eluted with buffer (25 mM Tris, pH 7.0, 250 mM NaCl, 160 mM imidazole, 10% glycerol). The eluant was then diluted, concentrated using Superdex 200 gel filtration column, purified as previously described and finally stored at –80 °C until use.
The previously prepared GST MEK-His protein was diluted in TTBS buffer (100 μL, 50 μg/mL), and then bound to 96-plate wells coated with glutathione (Pierce Biotechnology). Two DMSO-dilutions of each compound (1 µL) were added to 50 μL (50mM HEPES, pH7.0, 0.7 pmol of BRAF^V600E kinase). Tubes were incubated at ambient temperature for 1 h, then added to GST-MEK-His-plate wells. Afterwards, 50 μL of phosphorylation buffer were added to start kinase reaction (37 °C/30 min/shaking). Reaction was stopped, then substrate was added, and the signal was recorded. […]

[2] abbreviates: SK-OV-3, SKOV-3 cells, MTT, 24 h exposure.

Like-named read-outs stand apart in the source and are kept apart here.

T1 sequence (P15056 457-717 V600E limits assumed): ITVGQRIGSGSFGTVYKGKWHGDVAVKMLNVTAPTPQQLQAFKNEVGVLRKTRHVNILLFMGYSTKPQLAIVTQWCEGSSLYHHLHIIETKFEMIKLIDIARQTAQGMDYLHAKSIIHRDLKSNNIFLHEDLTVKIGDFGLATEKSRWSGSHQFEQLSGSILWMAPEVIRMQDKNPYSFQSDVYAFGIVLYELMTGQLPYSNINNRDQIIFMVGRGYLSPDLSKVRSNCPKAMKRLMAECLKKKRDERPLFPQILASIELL

The molecule `COCC1CC2C3CCc4cc(O)ccc4C3CCC2(C)C1NN` (stereo not drawn) [Compound 3a, 16-(α-Methoxy-methane)-17-hydrazino-estra-1(10),2,4-trien-[17,16-c]-3-ol] displayed a melting point of 199 to 201 °C. Further, the IC50 in the series with SKOV-3 cells (SK-OV-3, 24 h) is 0.00423 ± 0.00012 µM. Half-maximal inhibition in the series “in vitro” (IC50 at 24 h) required 1.2 µM. Also, the IC50 on topoisomerase II was 0.00345 ± 0.00013 µM. In addition, the IC50 in series [1] stood at 0.041 ± 0.0016 µM.
Molecule `COC(C)C1CC2C3CCc4cc(O)ccc4C3CCC2(C)C1NN` (stereo not drawn) [Compound 3b, 16-(α-Methoxy-ethane)-17-hydrazino-estra-1(10),2,4-trien[17,16-c]-3-ol] yielded a melting point of 308 to 310 °C. In addition, inhibition in the series “in vitro” was half-maximal at 2.45 µM (IC50 at 24 h).
Regarding `CCOCC1CC2C3CCc4cc(O)ccc4C3CCC2(C)C1NN` (stereo not drawn) [Compound 3c, 16-(α-Ethoxy-methane)-17-hydrazino-estra-1(10),2,4-trien-[17,16-c]-3-ol], the melting point lay within 219 to 221 °C. This molecule showed an IC50 at 24 h in the series “in vitro” of 5.67 µM.
The like results for `CCOC(C)C1CC2C3CCc4cc(O)ccc4C3CCC2(C)C1NN` (stereo not drawn) [Compound 3d, 16-(α-Ethoxy-ethane)-17-hydrazino-estra-1(10),2,4-trien-[17,16-c]-3-ol] were, in that order, 223 to 225 °C and 7.44 µM.
For `CNNC1C(COC)CC2C3CCc4cc(O)ccc4C3CCC21C` (centres unmarked) [Compound 3e] the same measures were 222 to 224 °C and 8.11 µM.
For `CNNC1C(C(C)OC)CC2C3CCc4cc(O)ccc4C3CCC21C` (stereo not drawn) [Compound 3f, 16-(α-Methoxy-ethane)-17-[N-methyl-hydrazino]-estra-1(10),2,4-trien-[17,16-c]-3-ol] the same measures were 310 to 312 °C and 9.2 µM.
`CCOCC1CC2C3CCc4cc(O)ccc4C3CCC2(C)C1NNC` (stereo not drawn) [Compound 3g, 16-(α-Ethoxy-methane)-17-[N-methyl-hydrazino]-estra-1(10),2,4-trien-[17,16-c]-3-ol] registered a melting point of 286 to 288 °C. Besides, inhibition in “in vitro” was half-maximal at 11.2 µM (IC50 at 24 h).
For `CCOC(C)C1CC2C3CCc4cc(O)ccc4C3CCC2(C)C1NNC` (stereo not drawn) [Compound 3h, 16-(α-Ethoxy-ethane)-17-[N-methyl-hydrazino]-estra-1(10),2,4-trien-[17,16-c]-3-ol] the same measures were 280 to 282 °C and 16.2 µM.
The like results for `COCC1CC2C3CCc4cc(O)ccc4C3CCC2(C)C1NNc1ccccc1` (stereo not drawn) [Compound 3i, 16-(α-Methoxy-methane)-17-[N-phenyl-hydrazino]-estra-1(10),2,4-trien-[17,16-c]-3-ol] were, in that order, 312 to 314 °C and 15.1 µM.
The like results for `COC(C)C1CC2C3CCc4cc(O)ccc4C3CCC2(C)C1NNc1ccccc1` (stereo not drawn) [Compound 3j, 16-(α-Methoxy-ethane)-17-[N-phenyl-hydrazino]-estra-1(10),2,4-trien-[17,16-c]-3-ol] were, in that order, 229 to 231 °C and 16.2 µM.
On to `CCOCC1CC2C3CCc4cc(O)ccc4C3CCC2(C)C1NNc1ccccc1` (stereo not drawn) [Compound 3k, 16-(α-Ethoxy-methane)-17-[N-phenyl-hydrazino]-estra-1(10),2,4-trien-[17,16-c]-3-ol], for which the melting point is 338 to 340 °C. Further, in “in vitro”, the IC50 at 24 h worked out at 17.8 µM.
The molecule `CCOC(C)C1CC2C3CCc4cc(O)ccc4C3CCC2(C)C1NNc1ccccc1` (stereo not drawn) [Compound 3l, 16-(α-Ethoxy-ethane)-17-[N-phenyl-hydrazino]-estra-1(10),2,4-trien-[17,16-c]-3-ol] came in with a melting point of 288 to 300 °C. The molecule also returned an IC50 at 24 h in “in vitro” of 20.2 µM.
`CN1CC2CC3C4CCc5cc(O)ccc5C4CCC3(C)C2=N1` (centres unmarked) [Compound 4a, 1`-Methyl-1`H-estra-1(10),2,4-trien-[17,16-c]pyrazoline-3-ol] came in with a melting point of 117 to 119 °C. In the series “in vitro”, this molecule yielded an IC50 at 24 h of 23.3 µM.
The like results for `CC1C2CC3C4CCc5cc(O)ccc5C4CCC3(C)C2=NN1C` (centres unmarked) [Compound 4b, 1`-Methyl-1`H-5`-methyl-estra-1(10),2,4-trien-[17,16-c]pyrazoline-3-ol] were, in that order, 216 to 218 °C and 24.6 µM.
For `CC12CCC3c4ccc(O)cc4CCC3C1CC1CN(c3ccccc3)N=C12` (centres unmarked) [Compound 4c, 1`-Phenyl-1`H-estra-1(10),2,4-trien-[17,16-c]pyrazoline-3-ol] the same measures were 255 to 257 °C and 25.6 µM.
For `CC1C2CC3C4CCc5cc(O)ccc5C4CCC3(C)C2=NN1c1ccccc1` (centres unmarked) [Compound 4d, 1`-Phenyl-1`H-5`-methyl-estra-1(10),2,4-trien-[17,16-c]pyrazoline-3-ol], the melting point lay in the range of 214 to 216 °C. The molecule also came in with an IC50 at 24 h in “in vitro” of 30.3 µM. In addition, the IC50 at topoisomerase II was 0.0436 ± 0.00098 µM.
With `COc1cccc2c1C(=O)c1c(O)c3c(c(O)c1C2=O)C[C@@](O)(C(=O)CO)C[C@@H]3O[C@H]1C[C@H](N)[C@H](O)[C@H](C)O1` [doxorubicin], the IC50 in the series on SKOV-3 cells (setting [2]) turned out to be 0.25 µM.
Consider `Oc1ccc(/C=C/c2cc(O)cc(O)c2)cc1` [resveratrol], for which the IC50 with SKOV-3 cells (setting [2]) worked out at 0.055 µM.
